Data set [1] has as its system N. caninum. The data set can be described thus: Mice experimentally infected with N. caninum. On the set-up: species or system Balb/c mice. The note with it: mouse, in vivo.
The nature of data set [2]: Rat PK following IV and PO dosing. The note with it: PO vs IV, rats.

Consider `CCOc1ccc2cc(-c3nn(CC4CCN(C)CC4)c4ncnc(N)c34)ccc2c1` [Compound 150], for which, in data set [1], the “treatment of N. caninum infected mice” value was “treats infected mice and rids of N. caninum infection in brain and fetuses”. With `CC(C)Cn1nc(-c2ccc3cc(OCC(C)(C)O)ccc3c2)c2c(N)ncnc21` [Example 33, 1-(6-(4-amino-1-isobutyl-1H-pyrazolo[3,4-d]pyrimidin-3-yl)naphthalen-2-yloxy)-2-methylpropan-2-ol], the bioavailability entry in data set [2] is “essentially complete bioavailability”.

These data come from patent US10632122B2, “Compositions and methods for treating toxoplasmosis, cryptosporidiosis and other apicomplexan protozoan related diseases” (University of Washington, priority 2015, dated 2020).
